Measured values: patent EP4748864A1, “POLYMERIZATION INITIATOR OR PHOTOSENSITIZER, POLYMERIZATION INITIATION COMPOSITION, AND METHOD FOR PRODUCING RESIN” (Miyoshi Oil & Fat Co., Ltd., priority 2023, dated 2025)

How the values were obtained:
Type in all cases: physicochemical
[1] = UV absorption characteristics of component (A), UV-visible spectrophotometer; conditions: 100 µM chloroform solution, 10-mm quartz cell; for Maximum absorption wavelength Molar absorption coefficient: at the maximum absorption wavelength
Description: A 100 µM chloroform solution of each benzophenone derivative was prepared and placed in a 10-mm quartz cell. The absorption spectrum was measured using a UV-visible spectrophotometer (V-550, manufactured by JASCO Corporation).

[2] = Solubility of component (A) in monomers and solvents, visual observation; parameters: key to Solubility Butyl acrylate / Solubility Toluene: ⊚: dissolved transparently; ∘: dissolved almost transparently, but turbidity was observed; △: not dissolved; conditions: for Solubility Butyl acrylate: 0.1 g in butyl acrylate (1.0 g); for Solubility Butyl acrylate / Solubility Toluene: visual; for Solubility Toluene: 0.1 g in toluene (1.0 g); for solubility in butyl acrylate and toluene, result in words: 0.1 g in butyl acrylate (1.0 g) or toluene (1.0 g)
Description: The components (A), A-1 to A-4 and A-9 to A-12, (0.1 g) was added to butyl acrylate (1.0 g) or toluene (1.0 g), and the resulting mixture was stirred. The appearance of the mixture was visually observed, and the solubility was evaluated as follows (Table 5).
• ⊚: dissolved transparently • ∘: dissolved almost transparently, but turbidity was observed • △: not dissolved

[3] = Heat resistance of component (A): 5% weight loss temperature by TG/DTA; conditions: heating rate 10°C/min, 25°C to 550°C
Description: The 5% weight loss temperature of each benzophenone derivative was measured as follows. Using a simultaneous differential thermal and thermogravimetric analyzer (TG/DTA6200, manufactured by SII), heating was performed at a heating rate of 10°C/min in a measurement range of 25°C to 550°C, and the temperature at which the weight change (TG) decreased by 5% by weight was read.

Compound | Maximum absorption wavelength Wavelength [1] [nm] | Molar absorption coefficient at 365 nm [1] [L/mol/cm] | Maximum absorption wavelength Molar absorption coefficient [1] [L/mol/cm] | Solubility Butyl acrylate [2] | Solubility Toluene [2] | 5% weight loss temperature [3] [°C] | solubility in butyl acrylate and toluene, result in words [2]
Cc1ccc(Sc2ccc(C(=O)c3ccccc3)cc2)cc1 [A-5, 4-(p-Tolylthio)benzophenone, reference compound] | 316 | 700 | 13200 |  |  | 235 | 
4,4'-Ditolylthiobenzophenone [A-2] | 327 |  | 31500 | Δ | ○ |  | 
S=C(c1ccc(-c2ccccc2)cc1)c1ccc(-c2ccccc2)cc1 [A-1, 4,4'-Diphenylthiobenzophenone] | 326 | 3900 | 32880 | Δ | Δ | 314 | 
Cc1cc(C(C)(C)C)ccc1Sc1ccc(C(=O)c2ccc(Sc3ccc(C(C)(C)C)cc3C)cc2)cc1 [A-9, 4,4'-Dithio(4-tert-butyl-2-methylphenyl)benzophenone] | 329 | 3870 | 32600 | ⊚ | ⊚ |  | 
CC(C)c1ccc(Sc2ccc(C(=O)c3ccc(Sc4ccc(C(C)C)cc4)cc3)cc2)cc1 [A-3, 4,4'-Bis(p-isopropylphenylthio)benzophenone] | 327 |  | 31440 | ⊚ | ⊚ |  | good solubility
CSc1ccc(C(=O)c2ccc(SC)cc2)cc1 [A-6, 4,4'-Bis(methylthio)benzophenone, reference compound] | 323 | 1100 | 25100 |  |  | 239 | 
CC(C)(C)c1ccc(Sc2ccc(C(=O)c3ccc(Sc4ccc(C(C)(C)C)cc4)cc3)cc2)cc1 [A-4, 4,4'-Bis(p-tert-butylphenylthio)benzophenone] | 328 |  | 31120 | ○ | ⊚ |  | good solubility

The remaining lines, values ahead:

Maximum absorption wavelength Wavelength [1] [nm] | Molar absorption coefficient at 365 nm [1] [L/mol/cm] | Maximum absorption wavelength Molar absorption coefficient [1] [L/mol/cm] | Solubility Butyl acrylate [2] | Solubility Toluene [2] | 5% weight loss temperature [3] [°C] | solubility in butyl acrylate and toluene, result in words [2] | Compound
328 | 3250 | 31590 | ○ | ⊚ |  |  | Cc1ccc(C)c(Sc2ccc(C(=O)c3ccc(Sc4cc(C)ccc4C)cc3)cc2)c1 [A-12, 4,4'-Dithio(2,5-dimethylphenyl)benzophenone]
328 |  | 30730 | ○ | ⊚ |  |  | Cc1cccc(Sc2ccc(C(=O)c3ccc(Sc4cccc(C)c4)cc3)cc2)c1 [A-10, 4,4'-Dithio(3-methylphenyl)benzophenone]
329 | 3830 | 31640 | ○ | ○ |  |  | Cc1ccc(Sc2ccc(C(=O)c3ccc(Sc4ccc(C)cc4C)cc3)cc2)c(C)c1 [A-11, 4,4'-Dithio(2,4-dimethylphenyl)benzophenone]
326 | 2000 | 24800 |  |  | 282 |  | CCCCCCCCSc1ccc(C(=O)c2ccc(SCCCCCCCC)cc2)cc1 [A-7, 4,4'-Bis(octylthio)benzophenone, reference compound]
